Data as given in US7968526B2, “Antisense oligonucleotides directed to ribonucleotide reductase R2 and uses thereof in the treatment of cancer” (Lorus Therapeutics Inc., priority 2003, dated 2011).
“Also recorded” adds a separate entry of the source. [5mC] = 5-methylcytosine

Legend:
[1] = system: MDA-MB-231 human breast cancer cells; experiment: MDA-MB-231 breast tumour xenograft in CD-1 nude mice, combination with taxol or doxorubicin (1.7); assay type: in vivo, human cells in mice; settings: MDA-MB-231, CD-1 nude mice; oligonucleotides 10 mg/kg i.v. every other day; taxol 10 mg/kg, doxorubicin 5 mg/kg i.v. weekly
Experimental: After 52 days the mice were sacrificed and the tumours weighed. […] Mitoxantrone was administered intravenously once at the beginning of the treatments at a dose of 2 mg/kg (FIG. 4A) or once a week for four weeks at a reduced dose of 0.8 mg/kg (FIG. 4B). All treatments were stopped at day 50 (FIG. 4A) or 48 (FIG. 4B), respectively. […] Mitoxantrone was administered intravenously once at the beginning of the treatments at a dose of 2 mg/kg (FIG. 5A) or once a week for four weeks at a reduced dose of 0.8 mg/kg (FIG. 5B). All treatments were stopped at day 42 (FIG. 5A) or 38 (FIG. 5B), respectively. […] A2058 is a metastatic melanoma cell line. […] All treatments were stopped at day 24. […] Taxol was administered intravenously once a week at a dose of 10 mg/kg for three (FIG. 7A) or four weeks (FIG. 7C). Doxorubicin was administered intravenously once a week at a dose of 5 mg/kg for first three weeks (FIG. 7A) or for two weeks (FIG. 7C). All treatments were stopped at day 33 (FIG. 7A) or at day 26 (FIG. 7C), respectively. […] In FIG. 7C, antitumour activities were estimated by the inhibition of tumour volume, which was measured with calipers. Each point represents mean tumour volume calculated from 10 animals per experimental group. […] Taxol was administered intravenously once a week for first three weeks and intraperitoneally once a week for next two weeks at a dose of 10 mg/kg. Cisplatin was administered intravenously once a week for first three weeks and intraperitoneally once a week for next two weeks at a dose of 4 mg/kg. All treatments were stopped at day 40. Antitumour activities were estimated by the inhibition of tumour volume, which was measured with caliper. Each point represents mean tumour volume calculated from 9 animals per experimental group.

[2] = system: Hep G2 human liver cancer cells; experiment: HepG2 liver tumour growth in CD-1 nude mice (3.7); assay type: in vivo, human cells in mice; settings: Hep G2, CD-1 nude mice; 2.5 mg/kg i.v. every day, 30 days
Experimental: Treatments lasted for 14 days thereafter. Antitumour activities were estimated by the inhibition of tumour volume, which was measured with a caliper on four different occasions over the treatment period. Each point represents mean tumour volume calculated from 5 animals per experimental group. […] Control animals (control) received saline alone for the same period. At the end of the treatments, the animals were sacrificed, tumours were excised and their weights were measured. Each bar represents mean tumour weight calculated from 6 animals per experimental group. […] Treatments lasted for 24 days thereafter. Antitumour activities were estimated by the inhibition of tumour volume, which was measured with a caliper at two-day intervals over the treatment period. Each point represents mean tumour volume calculated from 4 animals per experimental group. […] Treatments lasted for 24 days thereafter. Antitumour activities were estimated by the inhibition of tumour volume, which was measured with a caliper at two-day intervals over the treatment period. Each point represents mean tumour volume calculated from 4 animals per experimental group. […] Treatments lasted for 22 days thereafter. […] Each point represents mean tumour volume calculated from 5 animals per experimental group. […] Treatments lasted for 14 days thereafter. Antitumour activities were estimated by the inhibition of tumour volume, which was measured with a caliper on four different occasions over 16-day period. Each point represents mean tumour volume calculated from 5 animals per experimental group. […] Two different batches of SEQ ID NO:1, synthesized at different times (designated as batch 1 and batch 2), were tested to detect possible batch-specific effects. […] Treatments lasted for 34 days thereafter. Antitumour activities were estimated by the inhibition of tumour volume, which was measured with a caliper at two-day intervals over the treatment period. Each point represents mean tumour volume calculated from 5 animals per experimental group. […] Treatments lasted for 30 days thereafter. Antitumour activities were estimated by the inhibition of tumour volume, which was measured with a caliper at various time intervals over the span of 30 days. Each point represents mean tumour volume calculated from 6 animals per experimental group. […] All treatments were stopped at day 36. Antitumour activities were estimated by the inhibition of tumour volume, which was measured with a caliper. Each point represents mean tumour volume calculated from 5 animals per experimental group. […] All treatments were stopped at day 52. […] Antitumour activities were estimated by the inhibition of tumour volume, which was measured with a caliper.

[3] = system: human Burkitt's lymphoma (Raji) cells; experiment: Survival of SCID mice bearing human Burkitt's lymphoma (Raji); assay type: in vivo, human cells in mice; settings: 10 mg/kg i.v. every second day
Experimental: Mice with established human Burkitt's lymphoma tumours were treated every second day with either saline or SEQ ID NO:1 for 44 days as described above. The control group mice all died from disease progression by day 20. At day 44, the SEQ ID NO:1 mice continued treatment on a weekly basis until stopping the treatment at day 73.
As an additional test of efficacy SEQ ID NO:1 was administered to SCID mice bearing active Burkitt's lymphoma (FIG. 30). Viable human Burkitt's lymphoma (Raji) cells (5×10^6) collected from subconfluent logarithmically growing cultures were injected i.v. into each animal and disease was allowed to establish for 2 days. SEQ ID NO:1, SEQ ID NO:3 and SEQ ID NO:2, in normal saline were administered by tail vein injection every second day at a dose of 10 mg/kg. At day 40 the treatment schedule was reduced to 10 mg/kg every 3 days. Control animals received saline alone, without oligonucleotide. Survival is presented as a percentage of the starting number of mice over time.

[4] = system: C8161 human metastatic melanoma cells; experiment: Experimental metastasis assay, C8161 cells, treatment post tumour cell injection; assay type: in vivo, human cells in mice; settings: C8161 cells i.v. into SCID mice; treatment initiated after 2 days; lungs 5-7 weeks later
Experimental: C8161 human melanoma cells were seeded into 100 mm tissue culture dishes at a density of 2×10^6 and incubated overnight at 37° C. in α-MEM medium supplemented with 10% FBS. The cells were trypsinized, collected by centrifugation and aliquots were removed from the suspension to determine the cell viability using trypan blue exclusion test. […] Treatment was initiated after 2 days. Estimates of the number of lung nodules were made 5-7 weeks later, after excised lungs from individual mice were stained with picric acid dye solution (75% picric acid, 20% formaldehyde, 5% glacial acetic acid).
Murine R3 fibrosarcoma and human C8161 melanoma cells injected into the tail vein of mice form observable lung nodules 2 weeks post-injection. […] To more accurately reflect the clinical situation, mice were treated with SEQ ID NO:1 post tumour cell injection. C8161 human metastatic melanoma cells were seeded into 100 mm tissue culture dishes at a density of 2×10^6 and incubated overnight at 37° C. in α-MEM medium supplemented with 10% FBS. The cells were trypsinized, collected by centrifugation and aliquots were removed from the suspension to determine the cell viability using trypan blue exclusion test. Approximately 1×10^5 cells suspended in 0.1 ml of PBS were injected into the tail veins of 6-8 week old female SCID mice. Treatment was initiated after 2 days. Estimates of the number of lung nodules were made 5-7 weeks later, after excised lungs from individual mice were stained with picric acid dye solution (75% picric acid, 20% formaldehyde, 5% glacial acetic acid). The results are shown in FIG. 31, bars represent the mean number of nodules per mouse with standard error.

[5] = system: HT-29 human colon cancer cells; settings: SEQ ID NO:1 6 mg/kg i.v. every day, mitomycin C 3.5 mg/kg/week i.v.
Experimental: • 1.1 HT-29 human colon cancer cells (3×10^6 cells in 100 μl of PBS) were subcutaneously injected into the right flank of 6-7 weeks old female CD-1 nude mice. After the size of tumour reached an approximate volume of 50 mm^3, 4 days post tumour cell injection, mitomycin C was administered by bolus infusion into the tail vein at days 4, 11 and 18 with a dose of 3.5 mg/kg/week. […] SEQ ID NO:1 was administered by bolus infusion into the tail vein every day at 6 mg/kg and mitomycin C was administered intravenously at days 4, 11 and 18 with a dose of 3.5 mg/kg/week, one hour after the treatments with SEQ ID NO:1. Control animals received saline alone for the same period as SEQ ID NO:1. All treatments were stopped at day 22. A day after the last treatment, tumours were excised from the animals and their weights were measured.

HT29 tumour xenografts = HT29 tumour xenografts in CD-1 nude mice, methylated oligonucleotides; assay type: in vivo, human cells in mice; settings: compared with SEQ ID NO:1
[6] = SCID mice (Example 7, FIG. 30), from day 40 every 3 days
[7] = SCID mice, stopped at day 42, sacrificed day 73, untreated all died within 23 days

Compound | Survival of mice [3, 6] | Survival of mice [3, 7] | Lung nodule formation / anti-metastatic activity (FIG. 31) [4] | Anti-tumour activity (FIG. 33) (HT29 tumour xenografts) | further results
5′-ACGCACTCAGCTAGTGACAC-3′ (listed as DNA, chemistry not given here) [SEQ ID NO:3, reference compound] | neither SEQ ID NO:3 nor SEQ ID NO:2 control ODNs prolonged survival | no observed efficacy | no anti-metastatic activity |  | Antitumour effect (tumour weight / volume, FIG. 7) [1]: no significant anti-tumour activity as a monotherapy; also recorded: does not cooperate with doxorubicin; Inhibitory effect on tumour growth (tumour volume, FIG. 20) [2]: did not differ from that in saline treated mice
5′-GGCTAAACTCGTCCACCAAG-3′ (listed as DNA, chemistry not given here) [SEQ ID NO:2, reference compound] | neither SEQ ID NO:3 nor SEQ ID NO:2 control ODNs prolonged survival | no observed efficacy | no anti-metastatic activity |  | 
CO[C@@]12[C@H](COC(N)=O)C3=C(C(=O)C(C)=C(N)C3=O)N1C[C@@H]1N[C@@H]12 [Mitomycin C, mitomycin C] |  |  |  |  | Tumour weight as % of saline control ([5]; HT-29 (colon), SCID mouse as printed): 15%; Antitumour effect (tumour weight, FIG. 1) ([5]; HT-29, CD-1 nude mice): significant delay of tumour growth compared to saline control
SEQ ID NO:4: SEQ ID NO:1 with methylation at the CpG (C9) (GGCTAAATCGCTCCACCAAG; [5mC] at 9, all phosphorothioate, sugars by position and methylation of C not given here) |  |  |  | does not abrogate the anti-tumour activity of SEQ ID NO:1; also recorded: measurable, but not significant, effect on the anti-tumour activity | 
SEQ ID NO:5: control oligonucleotide (met-11C) (GGCTAAATCGCTCCACCAAG; listed as DNA, chemistry not fully specified) [reference compound] |  |  |  | measurable, but not significant, effect on the anti-tumour activity | 
